Experimental data reported in BindingDB's records for doi:10.1111/cbdd.12811 (Università di Bari Aldo Moro, 2016).

Experiments:
[1] = biological target: ATP-dependent translocase ABCB1 (Homo sapiens, UniProt P08183); assay: Calcein-AM Assay
Procedure: (§1) MDCK-MDR1 or MDCK-MRP1 cells (50,000 cells per well) were seeded into black CulturePlate (96-well plate) with 100 μL medium and allowed to become confluentovernight. Hundred microliters of test compounds was solubilized in culture medium and added to monolayers. 96/wells plate was incubated at 37 °C for 30 min. Calcein-AM was added in 100 μL of phosphate-buffered saline (PBS) to yield a final concentration of 2.5 μm, and plate was incubated for 30 min. Each well was washed three times with ice-cold PBS.

[2] = biological target: Multidrug resistance-associated protein 1 (Homo sapiens, UniProt P33527); assay: Calcein-AM Assay
Chain of Multidrug resistance-associated protein 1 (P33527 whole entry): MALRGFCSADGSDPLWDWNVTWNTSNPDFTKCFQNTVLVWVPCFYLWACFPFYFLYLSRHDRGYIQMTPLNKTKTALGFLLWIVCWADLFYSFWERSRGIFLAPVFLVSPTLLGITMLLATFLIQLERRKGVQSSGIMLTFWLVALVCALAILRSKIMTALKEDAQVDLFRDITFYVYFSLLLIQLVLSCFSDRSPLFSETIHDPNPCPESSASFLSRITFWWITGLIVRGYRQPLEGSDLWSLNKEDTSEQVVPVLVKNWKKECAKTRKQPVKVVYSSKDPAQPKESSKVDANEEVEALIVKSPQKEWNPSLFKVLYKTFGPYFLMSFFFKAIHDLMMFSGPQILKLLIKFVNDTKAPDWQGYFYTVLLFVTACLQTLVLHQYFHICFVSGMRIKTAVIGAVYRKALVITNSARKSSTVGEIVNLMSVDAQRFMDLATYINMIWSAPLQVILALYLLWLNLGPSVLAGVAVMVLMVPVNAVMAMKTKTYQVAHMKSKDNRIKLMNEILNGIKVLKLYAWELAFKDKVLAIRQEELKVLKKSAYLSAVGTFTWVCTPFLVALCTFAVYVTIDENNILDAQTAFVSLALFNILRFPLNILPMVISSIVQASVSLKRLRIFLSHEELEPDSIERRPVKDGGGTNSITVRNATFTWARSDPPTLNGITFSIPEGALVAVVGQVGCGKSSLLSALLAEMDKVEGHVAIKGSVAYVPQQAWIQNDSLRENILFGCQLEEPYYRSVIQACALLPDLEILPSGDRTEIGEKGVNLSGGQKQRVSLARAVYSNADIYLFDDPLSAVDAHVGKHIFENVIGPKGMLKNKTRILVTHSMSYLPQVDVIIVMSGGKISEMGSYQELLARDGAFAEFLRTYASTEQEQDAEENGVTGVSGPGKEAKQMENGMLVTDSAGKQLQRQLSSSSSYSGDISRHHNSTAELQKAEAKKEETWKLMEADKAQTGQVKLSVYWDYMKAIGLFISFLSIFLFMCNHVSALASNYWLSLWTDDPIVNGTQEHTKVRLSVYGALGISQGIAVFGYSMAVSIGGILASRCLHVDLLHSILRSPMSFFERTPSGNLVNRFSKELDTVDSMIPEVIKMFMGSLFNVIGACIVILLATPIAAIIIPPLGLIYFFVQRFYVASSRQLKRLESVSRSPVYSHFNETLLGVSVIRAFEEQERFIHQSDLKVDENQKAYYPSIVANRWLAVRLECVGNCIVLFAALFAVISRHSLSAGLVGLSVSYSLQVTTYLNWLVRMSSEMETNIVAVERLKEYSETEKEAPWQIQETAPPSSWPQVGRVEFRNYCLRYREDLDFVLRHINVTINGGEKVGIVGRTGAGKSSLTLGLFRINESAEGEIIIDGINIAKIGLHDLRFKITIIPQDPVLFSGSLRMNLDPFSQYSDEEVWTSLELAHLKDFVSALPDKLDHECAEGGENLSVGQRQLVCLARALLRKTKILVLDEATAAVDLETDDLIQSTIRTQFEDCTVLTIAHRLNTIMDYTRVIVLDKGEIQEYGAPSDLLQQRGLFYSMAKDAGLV
Procedure: as §1

Chain of ATP-dependent translocase ABCB1 (P08183 whole entry): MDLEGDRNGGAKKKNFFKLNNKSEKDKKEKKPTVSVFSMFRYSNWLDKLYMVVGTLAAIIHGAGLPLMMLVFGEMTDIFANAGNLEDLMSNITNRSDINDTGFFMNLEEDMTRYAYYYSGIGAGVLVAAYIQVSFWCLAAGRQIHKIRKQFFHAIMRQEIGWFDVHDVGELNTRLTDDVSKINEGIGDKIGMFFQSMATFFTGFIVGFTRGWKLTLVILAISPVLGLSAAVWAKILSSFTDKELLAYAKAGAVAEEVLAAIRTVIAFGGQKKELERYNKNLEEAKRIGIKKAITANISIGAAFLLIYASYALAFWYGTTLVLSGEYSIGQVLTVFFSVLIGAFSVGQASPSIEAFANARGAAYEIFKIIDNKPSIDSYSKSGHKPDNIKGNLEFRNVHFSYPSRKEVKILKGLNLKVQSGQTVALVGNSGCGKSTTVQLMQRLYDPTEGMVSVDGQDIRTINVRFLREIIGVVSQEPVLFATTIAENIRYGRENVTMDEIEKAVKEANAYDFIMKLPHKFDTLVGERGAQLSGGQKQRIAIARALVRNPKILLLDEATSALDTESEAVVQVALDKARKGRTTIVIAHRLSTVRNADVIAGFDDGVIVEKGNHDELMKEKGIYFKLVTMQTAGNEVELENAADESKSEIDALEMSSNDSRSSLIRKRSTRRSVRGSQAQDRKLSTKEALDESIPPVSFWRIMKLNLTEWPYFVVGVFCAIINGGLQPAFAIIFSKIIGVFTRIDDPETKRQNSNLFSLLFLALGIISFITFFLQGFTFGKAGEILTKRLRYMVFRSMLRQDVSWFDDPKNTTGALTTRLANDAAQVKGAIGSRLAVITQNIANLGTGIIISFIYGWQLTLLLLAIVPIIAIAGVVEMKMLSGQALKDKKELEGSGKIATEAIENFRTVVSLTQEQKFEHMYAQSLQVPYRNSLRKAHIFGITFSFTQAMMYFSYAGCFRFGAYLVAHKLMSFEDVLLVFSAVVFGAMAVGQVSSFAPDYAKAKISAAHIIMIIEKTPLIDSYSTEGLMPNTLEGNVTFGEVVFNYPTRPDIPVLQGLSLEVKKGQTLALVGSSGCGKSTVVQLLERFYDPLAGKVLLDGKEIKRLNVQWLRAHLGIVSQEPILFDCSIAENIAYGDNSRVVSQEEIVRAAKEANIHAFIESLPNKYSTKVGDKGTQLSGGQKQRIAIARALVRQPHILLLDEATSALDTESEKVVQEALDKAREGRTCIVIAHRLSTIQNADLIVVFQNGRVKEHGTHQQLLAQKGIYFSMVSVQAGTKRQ

SMILES	IC50 [1] [µM]	IC50 [2] [µM]
COc1ccccc1NC(=O)c1ccc(OC)c(OC)c1OC [2,3,4-Trimethoxy-N-(2-methoxy-phenyl)-benzamide (15)]	30.4	71
COc1ccc(C(=O)Nc2ccccc2)c(OC)c1OC [2,3,4-Trimethoxy-N-phenyl-benzamide (7)]	> 100	> 100
COc1cc(OC)c(C(=O)Nc2ccccc2OC)c(OC)c1 [2,4,6-Trimethoxy-N-(2-methoxy-phenyl)-benzamide (16)]	47.6	> 100
COc1cc(OC)c(C(=O)Nc2ccccc2)c(OC)c1 [2,4,6-Trimethoxy-N-phenyl-benzamide (8)]	> 100	> 100
COc1cc(C(=O)Nc2ccccc2)cc(OC)c1OC [3,4,5-trimethoxy-N-phenylbenzamide (5)]	70.7	> 100
COc1cc(OC)c(C(=O)Nc2ccc(Br)cc2)c(OC)c1 [N-(4-Bromo-phenyl)-2,4,6-trimethoxy-benzamide (12)]	76.2	> 100

Compounds with a lower IC50 [1], results first:

IC50 [1] [µM]	IC50 [2] [µM]	SMILES
27		COc1cc(C(=O)Nc2ccc(Br)cc2)cc(OC)c1OC
3.52	> 100	COc1ccccc1NC(=O)c1cc(OC)c(OC)cc1OC [2,4,5-Trimethoxy-N-(2-methoxy-phenyl)-benzamide (14)]
21.9	> 100	COc1cc(OC)c(C(=O)Nc2ccccc2)cc1OC [2,4,5-Trimethoxy-N-phenyl-benzamide (6)]
26.2	> 100	COc1ccccc1NC(=O)c1cc(OC)c(OC)c(OC)c1 [3,4,5-Trimethoxy-N-(2-methoxy-phenyl)-benzamide (13)]
19.4	> 100	COc1ccc(C(=O)Nc2ccc(Br)cc2)c(OC)c1OC [N-(4-Bromo-phenyl)-2,3,4-trimethoxy-benzamide (11)]
9.27	> 100	COc1cc(OC)c(C(=O)Nc2ccc(Br)cc2)cc1OC [N-(4-Bromo-phenyl)-2,4,5-trimethoxy-benzamide (10)]
